Values joined by “and” are separate entries in the source; they are usually repeats but may differ in a detail not shown here. Equal values may be shown once.
Experiment: Plasma pharmacokinetics of BI 187004 after single oral doses (LC–MS/MS)
Details: for BI 187004 plasma concentrations: individual subjects
[1] = male, human, plasma, po, 2.5 mg
[2] = male, human, plasma, po, 2.5 mg, Plasma concentration Mean, 2.5 mg single oral
[3] = male, human, plasma, po, 2.5 mg, Plasma concentration Median, 2.5 mg single oral
[4] = male, human, plasma, po, 2.5 mg, Plasma concentration gMean, 2.5 mg single oral

With `N#Cc1ccc2c(c1)[C@H]1CCCN(C(=O)c3ccc4[nH]cnc4c3)[C@H]1C2` [BI 187004] the “Plasma concentration, individual subjects” value (2.5 mg single oral, planned time 0.5 h) was “BLQ (Below Limit of Quantification (<3.00 nmol/L)) and 5.84 nmol/L and 15.8 nmol/L and 8.84 nmol/L”, the “Plasma concentration, individual subjects” value (2.5 mg single oral, planned time 1 h) was “BLQ (Below Limit of Quantification (<3.00 nmol/L)) and 6.77 nmol/L and 28.4 nmol/L and 17.6 nmol/L and 7.86 nmol/L and 5.64 nmol/L” and the “Plasma concentration, individual subjects” value (2.5 mg single oral, planned time 1.5 h) was “BLQ (Below Limit of Quantification (<3.00 nmol/L)) and 6.06 nmol/L and 17.2 nmol/L and 14.9 nmol/L and 12.1 nmol/L and 5.62 nmol/L”. The “Plasma concentration, individual subjects” value (2.5 mg single oral, planned time 2 h) was “BLQ (Below Limit of Quantification (<3.00 nmol/L)) and 4.97 nmol/L and 13.8 nmol/L and 11.0 nmol/L and 9.41 nmol/L and 4.67 nmol/L”, the “Plasma concentration, individual subjects” value (2.5 mg single oral, planned time 2.5 h) was “BLQ (Below Limit of Quantification (<3.00 nmol/L)) and 4.45 nmol/L and 12.5 nmol/L and 10.1 nmol/L and 8.45 nmol/L” and the “Plasma concentration, individual subjects” value (2.5 mg single oral, planned time 3 h) was “BLQ (Below Limit of Quantification (<3.00 nmol/L)) and 3.48 nmol/L and 11.9 nmol/L and 8.37 nmol/L and 6.66 nmol/L and 3.95 nmol/L”. For the same compound, the “Plasma concentration, individual subjects” value (2.5 mg single oral, planned time 4 h) was “BLQ (Below Limit of Quantification (<3.00 nmol/L)) and 3.40 nmol/L and 10.7 nmol/L and 7.79 nmol/L and 6.03 nmol/L and 4.09 nmol/L”, the “Plasma concentration, individual subjects” value (2.5 mg single oral, planned time 5 h) was “BLQ (Below Limit of Quantification (<3.00 nmol/L)) and 9.77 nmol/L and 7.70 nmol/L and 6.49 nmol/L and 3.91 nmol/L” and the “Plasma concentration, individual subjects” value (2.5 mg single oral, planned time 6 h) was “BLQ (Below Limit of Quantification (<3.00 nmol/L)) and 7.52 nmol/L and 6.22 nmol/L and 5.34 nmol/L and 3.36 nmol/L”. For the same compound, the “Plasma concentration, individual subjects” value (2.5 mg single oral, planned time 8 h) was “BLQ (Below Limit of Quantification (<3.00 nmol/L)) and 6.55 nmol/L and 5.06 nmol/L”, the “Plasma concentration, individual subjects” value (2.5 mg single oral, planned time 10 h) was “BLQ (Below Limit of Quantification (<3.00 nmol/L)) and 5.19 nmol/L and 3.85 nmol/L and 3.08 nmol/L” and the “Plasma concentration, individual subjects” value (2.5 mg single oral, planned time 12 h) was “BLQ (Below Limit of Quantification (<3.00 nmol/L)) and 4.76 nmol/L and 4.10 nmol/L and 3.34 nmol/L”. For the same compound, the “Plasma concentration, individual subjects” value (2.5 mg single oral, planned time 24 h) was “BLQ (Below Limit of Quantification (<3.00 nmol/L)) and 6.66 nmol/L and 5.03 nmol/L and 3.69 nmol/L and 3.73 nmol/L”, the “Plasma concentration, individual subjects” value (2.5 mg single oral, planned time 36 h) was “BLQ (Below Limit of Quantification (<3.00 nmol/L)) and 3.88 nmol/L” and the “Plasma concentration, individual subjects” value (2.5 mg single oral, planned time 48 h) was “BLQ (Below Limit of Quantification (<3.00 nmol/L)) and 5.01 nmol/L and 4.22 nmol/L and 3.14 nmol/L”. For the same compound, the “Plasma concentration, individual subjects” value (2.5 mg single oral, planned time 72 h) was “BLQ (Below Limit of Quantification (<3.00 nmol/L)) and 3.91 nmol/L”, the “Plasma concentration, individual subjects” value (2.5 mg single oral, planned time 96 h) was “BLQ (Below Limit of Quantification (<3.00 nmol/L))” and the “Plasma concentration, individual subjects” value (2.5 mg single oral, planned time –0.5 h) was “BLQ (Below Limit of Quantification (<3.00 nmol/L))”. The “CL/F gMean (%gCV)” value (5 mg single oral dose) was 5.82 (23.0) L/h, the “Plasma concentration, individual subjects” value (5 mg single oral, planned time 0.5 h) was 17.6 nM and 16.1 nM and the “Plasma concentration, individual subjects” value (5 mg single oral, planned time 1 h) was 139 nM and 113 nM. For the same compound, the “Plasma concentration, individual subjects” value (5 mg single oral, planned time 1.5 h) was 137 nM and 105 nM, the “Plasma concentration, individual subjects” value (5 mg single oral, planned time 2 h) was 125 nM and 89.1 nM and the “Plasma concentration, individual subjects” value (5 mg single oral, planned time 2.5 h) was 113 nM and 99.4 nM. The “Plasma concentration, individual subjects” value (5 mg single oral, planned time 3 h) was 104 nM and 89.4 nM, the “Plasma concentration, individual subjects” value (5 mg single oral, planned time 4 h) was 97.2 nM and 80.1 nM and the “Plasma concentration, individual subjects” value (5 mg single oral, planned time 5 h) was 88.2 nM and 69.3 nM. The “Plasma concentration, individual subjects” value (5 mg single oral, planned time 6 h) was 74.1 nM and 59.0 nM and 90.2 nM, the “Plasma concentration, individual subjects” value (5 mg single oral, planned time 8 h) was 67.1 nM and 53.5 nM and 81.4 nM and the “Plasma concentration, individual subjects” value (5 mg single oral, planned time 10 h) was 63.2 nM and 54.2 nM and 38.5 nM and 58.5 nM. The “Plasma concentration, individual subjects” value (5 mg single oral, planned time 12 h) was 54.1 nM and 51.5 nM and 32.5 nM, the “Plasma concentration, individual subjects” value (5 mg single oral, planned time 24 h) was 30.9 nM and 21.5 nM and the “Plasma concentration, individual subjects” value (5 mg single oral, planned time 36 h) was 19.4 nM and 14.0 nM and 9.68 nM. For the same compound, the “Plasma concentration, individual subjects” value (5 mg single oral, planned time 48 h) was 20.9 nM and 11.6 nM and 10.6 nM, the “Plasma concentration, individual subjects” value (5 mg single oral, planned time 72 h) was 12.4 nM and 5.72 nM and 5.44 nM and the “Plasma concentration, individual subjects” value (5 mg single oral, planned time 96 h) was 7.71 nM and 4.37 nM and 3.26 nM. For the same compound, the “Plasma concentration, individual subjects” value (5 mg single oral, planned time –0.5 h) was “BLQ (Below Limit of Quantification (<3.00 nmol/L))”, the “CL/F gMean (%gCV)” value (10 mg single oral dose) was 4.93 (29.2) L/h and the “Plasma concentration, individual subjects” value (10 mg single oral, planned time –0.5 h) was “BLQ (Below Limit of Quantification (<3.00 nmol/L))”. For the same compound, the “CL/F gMean (%gCV)” value (20 mg single oral dose) was 4.70 (41.2) L/h, the “BI 187004 plasma concentrations” value (20 mg single oral, planned time 72 h) was “BLQ (Below Limit of Quantification (<3.00 nmol/L))” and the “BI 187004 plasma concentrations” value (20 mg single oral, planned time 96 h) was “BLQ (Below Limit of Quantification (<3.00 nmol/L))”. For the same compound, the “BI 187004 plasma concentrations” value (20 mg single oral, planned time –0.5 h) was “BLQ (Below Limit of Quantification (<3.00 nmol/L))”, the “CL/F gMean (%gCV)” value (40 mg single oral dose) was 4.50 (36.1) L/h and the “BI 187004 plasma concentrations” value (40 mg single oral, planned time –0.5 h) was “BLQ (Below Limit of Quantification (<3.00 nmol/L))”. The “CL/F gMean (%gCV)” value (80 mg single oral dose) was 4.56 (40.2) L/h, the “BI 187004 plasma concentrations” value (80 mg single oral, planned time –0.5 h) was “BLQ (Below Limit of Quantification (<3.00 nmol/L))” and the “CL/F gMean (%gCV)” value (160 mg single oral dose) was 4.21 (19.5) L/h. The “BI 187004 plasma concentrations” value (160 mg single oral, planned time 96 h) was “BLQ (Below Limit of Quantification (<3.00 nmol/L))”, the “BI 187004 plasma concentrations” value (160 mg single oral, planned time –0.5 h) was “BLQ (Below Limit of Quantification (<3.00 nmol/L))” and the “Time to Cmax, single subject (subject 64)” value (240 mg) was 24 h. The “CL/F gMean (%gCV)” value (240 mg single oral dose) was 6.44 (53.4) L/h, the “BI 187004 plasma concentrations” value (240 mg single oral, planned time -0.5 h) was “BLQ (Below Limit of Quantification (<3.00 nmol/L))” and the “CL/F gMean (%gCV)” value (360 mg single oral dose) was 5.48 (25.4) L/h. The “BI 187004 plasma concentrations” value (360 mg single oral, planned time –0.5 h) was “BLQ (Below Limit of Quantification (<3.00 nmol/L))”, the “Apparent clearance (CL/F), range across dose groups” value (5–360 mg) was 4.21—6.44 L/h and the concentration at 96 h (male, human, in vivo, po, 240 mg) was 18.4 nM. It also gave a Vd/F (male, human, plasma, oral) of 87.9 to 281 L, a concentration at 10 h (male, human, plasma, oral, 10 mg, Plasma C10 gMean (range), 10 mg single dose) of 174 nM and a concentration at 24 h (male, human, plasma, oral, 10 mg, Plasma C24 gMean (range), 10 mg single dose, 24 h) of 71.3 nM. For the same compound, the concentration at 10 h (male, human, plasma, oral, 20 mg, Plasma C10 gMean (range), 20 mg single dose) was 382 nM, the concentration at 24 h (male, human, plasma, oral, 20 mg, Plasma C24 gMean (range), 20 mg single dose, 24 h) was 161 nM and the concentration at 10 h (male, human, plasma, oral, 40 mg, Plasma C10 gMean (range), 40 mg single dose) was 796 nM. For the same compound, the concentration at 24 h (male, human, plasma, oral, 40 mg, Plasma C24 gMean (range), 40 mg single dose, 24 h) was 321 nM, the concentration at 10 h (male, human, plasma, oral, 80 mg, Plasma C10 gMean (range), 80 mg single dose) was 1530 nM and the concentration at 24 h (male, human, plasma, oral, 80 mg, Plasma C24 gMean (range), 80 mg single dose, 24 h) was 878 nM. It also gave a concentration at 10 h (male, human, plasma, oral, 160 mg, Plasma C10 gMean (range), 160 mg single dose) of 3000 nM, a concentration at 24 h (male, human, plasma, oral, 160 mg, Plasma C24 gMean (range), 160 mg single dose, 24 h) of 1630 nM and a concentration at 10 h (male, human, plasma, oral, 240 mg, Plasma C10 gMean (range), 240 mg single dose) of 2600 nM. It also gave a concentration at 24 h (male, human, plasma, oral, 240 mg, Plasma C24 gMean (range), 240 mg single dose, 24 h) of 2130 nM, a concentration at 10 h (male, human, plasma, oral, 360 mg, Plasma C10 gMean (range), 360 mg single dose) of 5300 nM and a concentration at 24 h (male, human, plasma, oral, 360 mg, Plasma C24 gMean (range), 360 mg single dose, 24 h) of 2690 nM. For the same compound, the Tmax (male, human, plasma, po) was 1 to 1.5 h, the AUC(0-t) [1] was 0.212 µM·h and the Cmax [1] was 11.8 nM. The Tmax [1] was 1 h, the concentration at 24 h (male, human, plasma, po, 2.5 mg, C24 gMean (%gCV), 2.5 mg single oral dose) was 4.54 nM and the concentration at 1 h [2] was 13.3 nM. It also gave a concentration at 1.5 h [2] of 11.2 nM, a concentration at 2 h [2] of 8.77 nM and a concentration at 2.5 h [2] of 7.99 nM. For the same compound, the concentration at 3 h [2] was 6.87 nM, the concentration at 4 h [2] was 6.4 nM and the concentration at 5 h [2] was 6.97 nM. The concentration at 6 h [2] was 5.61 nM, the concentration at 10 h [2] was 4.53 nM and the concentration at 12 h [2] was 4.66 nM. The concentration at 24 h (male, human, plasma, po, 2.5 mg, Plasma concentration Mean, 2.5 mg single oral, 24 h) was 4.66 nM, the concentration at 48 h [2] was 3.99 nM and the concentration at 1 h [3] was 7.86 nM. The concentration at 1.5 h [3] was 12.1 nM, the concentration at 2 h [3] was 9.41 nM and the concentration at 2.5 h [3] was 8.45 nM. For the same compound, the concentration at 3 h [3] was 6.66 nM, the concentration at 4 h [3] was 6.03 nM and the concentration at 5 h [3] was 7.1 nM. The concentration at 6 h [3] was 5.78 nM, the concentration at 10 h [3] was 4.52 nM and the concentration at 12 h [3] was 4.43 nM. The concentration at 24 h (male, human, plasma, po, 2.5 mg, Plasma concentration Median, 2.5 mg single oral, 24 h) was 4.19 nM, the concentration at 48 h [3] was 3.9 nM and the concentration at 1 h [4] was 10.8 nM. For the same compound, the concentration at 1.5 h [4] was 10.1 nM and the concentration at 2 h [4] was 8.02 nM.

— article PMC8364686, “Safety, tolerability, pharmacokinetics and pharmacodynamics of single oral doses of BI 187004, an inhibitor of 11beta-hydroxysteroid dehydrogenase-1, in healthy male volunteers with overweight or obesity” (Clinical Diabetes and Endocrinology, 2021)
